Results on 6 molecules are retold here after ChEMBL document CHEMBL3399998, “Synthesis and biological evaluation of chalcone analogues as protective agents against cisplatin-induced cytotoxicity in kidney cells” (Bioorg Med Chem Lett, 2015).

Calls of active or inactive are those of the source. The calls are words filed in the database; no cut-off is given here.

One experiment relates to RAW264.7. The experiment in a line: Suppression of LPS-induced NO production in mouse RAW264.7 cells treated for 2 hrs and followed by challenged with […] for 24 hrs by griess reagent. Type of experiment: functional, cell-based.
Experiment [1] has as its system LLC-PK1. As to the kind of experiment: Renoprotective activity against cisplatin-induced cytotoxicity in pig LLC-PK1 cells assessed as recovery of cell viability treated for 2 hrs and followed by challenged with cisplatin for 24 hrs by MTT assay. The class given is functional, cell-based. Conditions: Sus scrofa. Background: Formazan colour is commonly taken as a measure of viable cells.

Experiment [2] relates to LLC-PK1. As to the kind of experiment: Renoprotective activity against cisplatin-induced cytotoxicity in pig LLC-PK1 cells assessed as recovery of cell viability at 125 uM treated for 2 hrs and followed by challenged with cisplatin for 24 hrs by MTT assay. The class given is functional, cell-based. The conditions noted are these: Sus scrofa.
Experiment [3] relates to LLC-PK1. The experiment in a line: Renoprotective activity against cisplatin-induced cytotoxicity in pig LLC-PK1 cells assessed as recovery of cell viability at 25 uM treated for 2 hrs and followed by challenged with cisplatin for 24 hrs by MTT assay. The class given is functional, cell-based. Conditions: Sus scrofa.
For experiment [4], the system named is LLC-PK1. As to the kind of experiment: Renoprotective activity against cisplatin-induced cytotoxicity in pig LLC-PK1 cells assessed as recovery of cell viability at 2 to 25 uM treated for 2 hrs and followed by challenged with cisplatin for 24 hrs by MTT assay. Type of experiment: functional, cell-based. The conditions noted are these: Sus scrofa.
The subject of experiment [5] is LLC-PK1. As to the kind of experiment: Renoprotective activity against cisplatin-induced apoptosis in pig LLC-PK1 cells assessed as reduction in cisplatin-induced phosphorylated p38 at 25 uM treated for 2 hrs and followed by challenged with cisplatin for 24 hrs by Western blot analysis. The class given is functional, cell-based. The conditions noted are these: Sus scrofa. On the technique in general: A western blot detects proteins with antibodies after separation by electrophoresis.

The subject of experiment [6] is LLC-PK1. As to the kind of experiment: Renoprotective activity against cisplatin-induced apoptosis in pig LLC-PK1 cells assessed as reduction in cisplatin-induced phosphorylated ERK at 25 uM treated for 2 hrs and followed by challenged with cisplatin for 24 hrs by Western blot analysis. The class given is functional, cell-based. Conditions: Sus scrofa.
Experiment [7] deals with LLC-PK1. The experiment in a line: Renoprotective activity against cisplatin-induced apoptosis in pig LLC-PK1 cells assessed as reduction in cisplatin-induced phosphorylated JNK at 25 uM treated for 2 hrs and followed by challenged with cisplatin for 24 hrs by Western blot analysis. The class given is functional, cell-based. Conditions: Sus scrofa.
The subject of experiment [8] is LLC-PK1. As to the kind of experiment: Renoprotective activity against cisplatin-induced apoptosis in pig LLC-PK1 cells assessed as reduction in cisplatin-induced cleaved caspase-3 at 25 uM treated for 2 hrs and followed by challenged with cisplatin for 24 hrs by Western blot analysis. Type of experiment: functional, cell-based. The conditions noted are these: Sus scrofa.

Experiment [9] concerns LLC-PK1. The experiment in a line: Reduction in cisplatin-induced MAPK phosphorylation in pig LLC-PK1 cells at 25 uM treated for 2 hrs and followed by challenged with cisplatin for 24 hrs by Western blot analysis. The conditions noted are these: Sus scrofa. Type of experiment: cell-based.
For experiment [10], the system named is LLC-PK1. As to the kind of experiment: Renoprotective activity against cisplatin-induced apoptosis in pig LLC-PK1 cells assessed as reduction in cisplatin-induced p53 level at 25 uM treated for 2 hrs and followed by challenged with cisplatin for 24 hrs by Western blot analysis. Type of experiment: functional, cell-based. The conditions noted are these: Sus scrofa.

Experiment [11] concerns LLC-PK1. As to the kind of experiment: Renoprotective activity against cisplatin-induced apoptosis in pig LLC-PK1 cells assessed as reduction in cisplatin-induced dead and apoptotic cells at 25 uM treated for 2 hrs and followed by challenged with cisplatin for 24 hrs by annexin V/Tali image-based cytometry. Type of experiment: functional, cell-based. The conditions noted are these: Sus scrofa.

Experiment [12] has as its system LLC-PK1. As to the kind of experiment: Renoprotective activity against cisplatin-induced cytotoxicity in pig LLC-PK1 cells assessed as recovery of cell viability at 25 to 125 uM treated for 2 hrs and followed by challenged with cisplatin for 24 hrs by MTT assay. Type of experiment: functional, cell-based. The conditions noted are these: Sus scrofa.

On to `Cc1ccc(/C=C/C(=O)c2ccc(Cl)cc2)cc1`, for which, in the experiment on RAW264.7, the inhibition entry was “Dose-dependent effect”. Also, the Activity result in the experiment on LLC-PK1 [1] was “Dose-dependent effect”. In addition, in the experiment with LLC-PK1 [2], the outcome was Active.

On to `COc1cccc(C(=O)/C=C/c2cc(OC)c(OC)cc2Br)c1`, for which the inhibition entry with RAW264.7 was “Dose-dependent effect”. In addition, the Activity entry in the experiment on LLC-PK1 [1] was “Dose-dependent effect”.

`COc1ccc(/C=C/C(=O)c2ccc(Br)cc2)cc1OC`: in the experiment with RAW264.7, the inhibition result was “Dose-dependent effect”. Further, the Activity entry with LLC-PK1 [1] is “Dose-dependent effect”. Besides, the outcome with LLC-PK1 [2] was Active.

With `COc1cc(Br)c(/C=C/C(=O)c2ccc(Br)cc2)cc1OC`, the inhibition result in the experiment with RAW264.7 was “Dose-dependent effect”. Besides, the Activity entry with LLC-PK1 [1] was “Dose-dependent effect”. For the same molecule, the outcome with LLC-PK1 [3], in the experiment with LLC-PK1 [4], in the experiment with LLC-PK1 [5], in the experiment with LLC-PK1 [6], in the experiment on LLC-PK1 [7] and in the experiment with LLC-PK1 [8] was Active. The outcome with LLC-PK1 [10] and in the experiment on LLC-PK1 [11] was Active. In the experiment with LLC-PK1 [9], the inhibition entry is “Active”.

As for `COc1ccc(C(=O)/C=C/c2cc(OC)c(Br)c(OC)c2)cc1OC`, the inhibition result with RAW264.7 was “Dose-dependent effect”. Moreover, the Activity entry in the experiment with LLC-PK1 [1] was “Dose-dependent effect”. The result in the experiment on LLC-PK1 [12] was inactive.

Consider `COc1cccc(C(=O)/C=C/c2ccc(Cl)cc2)c1`, for which, in the experiment with RAW264.7, the inhibition result was “Dose-dependent effect”. Further, the Activity entry in the experiment with LLC-PK1 [1] is “Dose-dependent effect”. In addition, the outcome in the experiment with LLC-PK1 [5], with LLC-PK1 [6], with LLC-PK1 [7], with LLC-PK1 [8], in the experiment with LLC-PK1 [10] and in the experiment on LLC-PK1 [11] was Active.
